US12581252B2, “Substituted pyrrolo[3,4-b]pyridines as PI3K-α inhibitors” (Relay Therapeutics, Inc., priority 2020, dated 2026)
pIC50: −log10 of the molar value.

biological target: H1047R PIK3CA enzyme (Homo sapiens, UniProt P42336, H1047R); test: ADP-Glo Biochemical PIK3CA Kinase Assay
Sequence (P42336 whole entry H1047R): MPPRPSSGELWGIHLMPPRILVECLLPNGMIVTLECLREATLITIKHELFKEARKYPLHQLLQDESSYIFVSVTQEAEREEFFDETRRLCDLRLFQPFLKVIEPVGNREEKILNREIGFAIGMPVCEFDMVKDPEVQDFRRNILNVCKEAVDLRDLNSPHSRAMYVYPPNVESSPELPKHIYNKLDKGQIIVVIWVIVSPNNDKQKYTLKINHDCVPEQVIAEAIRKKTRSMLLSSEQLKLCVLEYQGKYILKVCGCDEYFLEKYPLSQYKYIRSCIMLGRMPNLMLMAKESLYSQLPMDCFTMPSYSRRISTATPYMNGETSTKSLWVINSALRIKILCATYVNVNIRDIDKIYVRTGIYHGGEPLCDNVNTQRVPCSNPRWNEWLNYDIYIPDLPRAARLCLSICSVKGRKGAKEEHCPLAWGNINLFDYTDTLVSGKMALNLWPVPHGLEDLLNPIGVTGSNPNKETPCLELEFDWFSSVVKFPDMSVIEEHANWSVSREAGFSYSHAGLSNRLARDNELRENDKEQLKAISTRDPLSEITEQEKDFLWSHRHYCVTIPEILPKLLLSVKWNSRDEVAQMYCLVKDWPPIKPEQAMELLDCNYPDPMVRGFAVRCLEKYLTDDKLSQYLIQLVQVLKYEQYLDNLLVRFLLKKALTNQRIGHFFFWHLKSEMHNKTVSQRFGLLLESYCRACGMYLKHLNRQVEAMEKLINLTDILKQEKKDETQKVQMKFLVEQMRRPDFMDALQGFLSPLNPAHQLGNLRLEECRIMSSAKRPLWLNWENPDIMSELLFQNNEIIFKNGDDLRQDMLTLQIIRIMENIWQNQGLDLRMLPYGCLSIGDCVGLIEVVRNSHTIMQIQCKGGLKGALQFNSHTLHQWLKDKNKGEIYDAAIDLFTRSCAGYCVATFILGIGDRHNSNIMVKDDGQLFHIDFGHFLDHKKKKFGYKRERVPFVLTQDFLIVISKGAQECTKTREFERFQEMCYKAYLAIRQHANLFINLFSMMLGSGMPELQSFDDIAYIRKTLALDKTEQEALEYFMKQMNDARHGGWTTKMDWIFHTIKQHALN
Sequence (P27986 whole entry partner): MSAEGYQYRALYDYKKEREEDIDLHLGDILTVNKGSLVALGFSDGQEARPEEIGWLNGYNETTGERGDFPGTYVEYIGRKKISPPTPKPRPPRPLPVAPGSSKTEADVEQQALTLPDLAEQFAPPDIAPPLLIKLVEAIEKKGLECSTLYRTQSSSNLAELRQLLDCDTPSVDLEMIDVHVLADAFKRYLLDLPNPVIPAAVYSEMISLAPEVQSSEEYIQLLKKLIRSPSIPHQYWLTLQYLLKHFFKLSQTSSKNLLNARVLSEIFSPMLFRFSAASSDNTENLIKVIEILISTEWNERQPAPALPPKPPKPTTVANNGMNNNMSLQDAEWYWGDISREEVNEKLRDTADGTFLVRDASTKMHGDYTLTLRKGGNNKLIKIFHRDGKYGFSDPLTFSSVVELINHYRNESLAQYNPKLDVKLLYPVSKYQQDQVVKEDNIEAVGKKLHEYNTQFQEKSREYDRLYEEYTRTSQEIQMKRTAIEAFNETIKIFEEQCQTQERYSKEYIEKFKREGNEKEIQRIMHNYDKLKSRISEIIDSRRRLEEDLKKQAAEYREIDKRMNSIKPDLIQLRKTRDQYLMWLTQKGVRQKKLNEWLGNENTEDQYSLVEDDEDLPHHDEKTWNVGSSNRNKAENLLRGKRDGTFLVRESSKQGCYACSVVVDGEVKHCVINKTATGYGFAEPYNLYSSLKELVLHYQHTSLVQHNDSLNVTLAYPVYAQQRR

First: O=C1NC(c2cc(F)ccc2Cl)c2c(NC(=O)n3ccc4ccccc43)cc(Br)cc21 (centres unmarked) [Compound I-1318]
Second: O=C(Nc1cc(Br)cc2c1C(c1cc(F)ccc1Cl)NC2=O)c1ccc(F)cc1 (centres unmarked) [Compound I-525]
The pIC50 of the first is higher: ≥ 7.00 for the first, 4.00 to 5.00 for the second. The first is the more potent here.

Compared with `O=C(Nc1cccc2c1C(Cc1ccccc1)NC2=O)c1cc(F)cc(C(F)(F)F)c1` (centres unmarked) [Compound I-1673], `O=C(Nc1cccc2c1C(c1ccccc1)NC2=O)c1cc(F)cc(C(F)(F)F)c1` (centres unmarked) [Compound I-1805] is higher in pIC50: 4.00 to 5.00 for the first, 5.00 to 6.00 for the second. The second is the more potent here.

`COc1cnc2ccc(-c3cc(NC(=O)c4cc(F)cc(C(F)(F)F)c4)c4c(c3)C(=O)NC4c3cc(F)ccc3Cl)cc2c1` (centres unmarked) [Compound I-1602] and `O=C(Nc1cc(-c2ccn3nncc3c2)cc2c1C(c1cc(F)ccc1Cl)NC2=O)c1cc(F)cc(C(F)(F)F)c1` (centres unmarked) [Compound I-1670] cannot be ordered by pIC50: ≥ 7.00 for the first, ≥ 7.00 for the second.

`CC1(Nc2cc(NC(=O)c3cc(F)cc(C(F)(F)F)c3)c3c(c2)C(=O)N[C@H]3c2cc(F)ccc2Cl)COC1` [Compound I-813] and `O=C(Nc1cc(OCC2(CO)COC2)cc2c1C(c1cc(F)ccc1Cl)NC2=O)c1cc(F)cc(C(F)(F)F)c1` (centres unmarked) [Compound I-1357] cannot be ordered by pIC50: ≥ 7.00 for the first, ≥ 7.00 for the second.

First: O=C1NC(c2cc(F)ccc2F)c2c(NC(=O)c3csc4ccccc34)ccnc21 (centres unmarked) [Compound I-71]
Second: Cc1ccccc1C1NC(=O)c2cccc(NC(=O)c3csc4ccncc34)c21 (centres unmarked) [Compound I-74]
The pIC50 of the first is higher: 6.00 to 6.30 for the first, 5.00 to 6.00 for the second.

`Cc1ccccc1C1NC(=O)c2cccc(NC(=O)c3cccc(C(F)(F)F)c3)c21` (centres unmarked) [Compound I-435] and `COc1cc(F)cc(C(=O)Nc2cccc3c2C(c2ccccc2C)NC3=O)c1` (centres unmarked) [Compound I-340] fall in the same range of pIC50: 5.00 to 6.00 for the first, 5.00 to 6.00 for the second.

First: O=C1N[C@@H](c2cc(F)ccc2Cl)c2c(NC(=O)[C@@H]3CCCCN3)cc(-c3ccc4ncnn4c3)cc21 (racemic) [Compound I-1780]
Second: O=C1NC(c2cc(F)ccc2Cl)c2c(NC(=O)N3CCCCC3)cc(-c3ccc4ncnn4c3)cc21 (centres unmarked) [Compound I-1663]
The pIC50 of the first is lower: 4.00 to 5.00 for the first, 5.00 to 6.00 for the second. The second is the more potent here.

Compared with `O=C(Nc1cc(OC(F)F)cc2c1C(c1cc(F)ccc1Cl)NC2=O)c1cc(F)cc(C(F)(F)F)c1` (centres unmarked) [Compound I-812], `O=C(Nc1cc(Br)cc2c1[C@@H](c1cc(F)ccc1Cl)NC2=O)c1cc(F)cc(C(F)(F)F)c1` [Compound I-387] is lower in pIC50: ≥ 7.00 for the first, 5.00 to 6.00 for the second. The first is the more potent here.

`O=C1NC(c2cc(F)ccc2Cl)c2c(NC(=O)[C@H]3C[C@@H](O)c4ccccc43)cc(Br)cc21` (mixture of isomers) [Compound I-1942] and `O=C(Nc1cc(Br)cc2c1C(c1cc(F)ccc1Cl)NC2=O)c1cncc(F)c1` (centres unmarked) [Compound I-958] fall in the same range of pIC50: 4.00 to 5.00 for the first, 4.00 to 5.00 for the second.

Compared with `COc1cnc(-c2cc(NC(=O)c3cc(F)cc(C(F)(F)F)c3)c3c(c2)C(=O)NC3c2cc(F)ccc2Cl)cn1` (centres unmarked) [Compound I-1103], `O=C(Nc1cc(-c2ccc3ncnn3n2)cc2c1[C@@H](c1cc(F)ccc1Cl)NC2=O)c1cc(F)cc(C(F)(F)F)c1` [Compound I-1649] is lower in pIC50: ≥ 7.00 for the first, 5.00 to 6.00 for the second.

First: O=C(Nc1cccc2c1C(c1cc(F)ccc1Cl)NC2=O)c1csc2c1CCNC2 (centres unmarked) [Compound I-2304]
Second: O=C1NC(c2cc(F)ccc2Cl)c2c(NC(=O)C3CCCCC3)cccc21 (centres unmarked) [Compound I-1680]
The pIC50 of the first is lower: 4.00 to 5.00 for the first, 5.00 to 6.00 for the second. The second is the more potent here.

Compared with `CC(=O)c1cc(F)cc(C(=O)Nc2cccc3c2C(c2cc(F)ccc2Cl)NC3=O)c1` (centres unmarked) [Compound I-581], `O=C(Nc1cccc2c1C(c1cc(F)ccc1Cl)NC2=O)c1cc(Cl)cc(C(F)(F)F)c1` (centres unmarked) [Compound I-725] is higher in pIC50: 5.00 to 6.00 for the first, 6.00 to 6.30 for the second.

`O=C(Nc1cc(Br)cc2c1C(c1cc(F)ccc1Cl)NC2=O)c1cc(F)cc([N+](=O)[O-])c1` (centres unmarked) [Compound I-832] and `O=C(Nc1cc(Br)cc2c1[C@H](c1cc(F)ccc1C(F)F)NC2=O)c1cc(F)cc(C(F)(F)F)c1` [Compound I-797] cannot be ordered by pIC50: ≥ 7.00 for the first, ≥ 7.00 for the second.

Compared with `C[C@@H](c1cc(NC(=O)c2cc(F)cc(C(F)(F)F)c2)c2c(c1)C(=O)N[C@@H]2c1cc(F)ccc1Cl)S(C)(=O)=O` (single isomer, unassigned) [Compound I-1640], `CC(=O)Cc1cc(NC(=O)c2cc(F)cc(C(F)(F)F)c2)c2c(c1)C(=O)N[C@H]2c1cc(F)ccc1Cl` [Compound I-624] is higher in pIC50: 5.00 to 6.00 for the first, 6.30 to 7.00 for the second.

`N#Cc1nn(C(F)F)cc1-c1cc(NC(=O)c2cc(F)cc(C(F)(F)F)c2)c2c(c1)C(=O)N[C@H]2c1cc(F)ccc1Cl` [Compound I-1890] and `N#Cc1c(-c2cc(NC(=O)c3cc(F)cc(C(F)(F)F)c3)c3c(c2)C(=O)N[C@H]3c2cc(F)ccc2Cl)cnn1C(F)F` [Compound I-1921] cannot be ordered by pIC50: ≥ 7.00 for the first, ≥ 7.00 for the second.

First: O=C1N[C@@H](c2cc(F)ccc2Cl)c2c(NC(=O)N3C[C@@](O)(C(F)(F)F)c4cc(F)ccc43)ccc(-n3cccn3)c21 (single isomer, unassigned) [Compound I-2495]
Second: O=C1N[C@H](c2cc(F)ccc2Cl)c2c(NC(=O)N3C[C@](O)(C(F)(F)F)c4cc(F)ccc43)cc(Cl)nc21 (single isomer, unassigned) [Compound I-2702]
The pIC50 of the first is lower: 4.00 to 5.00 for the first, 5.00 to 6.00 for the second. The second is the more potent here.

Compared with `O=C(Nc1cc(Oc2ccccn2)cc2c1C(c1cc(F)ccc1Cl)NC2=O)c1cc(F)cc(C(F)(F)F)c1` (centres unmarked) [Compound I-1077], `O=C(Nc1cc(OC[C@H]2CCO2)cc2c1[C@@H](c1cc(F)ccc1Cl)NC2=O)c1cc(F)cc(C(F)(F)F)c1` (single isomer, unassigned) [Compound I-1520] is lower in pIC50: 6.30 to 7.00 for the first, 4.00 to 5.00 for the second.

`Cn1ccc2c(C(=O)Nc3cc(Br)cc4c3C(c3cc(F)ccc3Cl)NC4=O)ccnc21` (centres unmarked) [Compound I-636] and `CN1CCN(C(=O)Nc2cc(Br)cc3c2C(c2cc(F)ccc2Cl)NC3=O)CC1(C)C` (racemic) [Compound I-685] fall in the same range of pIC50: 4.00 to 5.00 for the first, 4.00 to 5.00 for the second.

`O=C1NC(c2ccccc2Cl)c2c(NC(=O)c3cc(F)cc(C(F)(F)F)c3)cccc2O1` (centres unmarked) [Compound I-1274] and `Cc1ccccc1C1NC(=O)c2c(N(C)C)ncc(NC(=O)c3cc(F)cc(C(F)(F)F)c3)c21` (centres unmarked) [Compound I-243] fall in the same range of pIC50: 6.00 to 6.30 for the first, 6.00 to 6.30 for the second.

Compared with `O=C(Nc1cccc2c1C(C1CCC(O)CC1)NC2=O)c1cc(F)cc(C(F)(F)F)c1` (centres unmarked) [Compound I-1835], `O=C(O)Cc1cc(NC(=O)c2cc(F)cc(C(F)(F)F)c2)c2c(c1)C(=O)NC2c1cc(F)ccc1Cl` (centres unmarked) [Compound I-399] is higher in pIC50: 4.00 to 5.00 for the first, ≥ 7.00 for the second. The second is the more potent here.

First: O=C(CCC(F)(F)F)Nc1cccc2c1[C@@H](c1cc(F)ccc1Cl)NC2=O [Compound I-2119]
Second: C=CC(CC(=O)Nc1cccc2c1C(c1cc(F)ccc1Cl)NC2=O)C(C)C(F)(F)F (mixture of isomers) [Compound I-2195]
The pIC50 of the first is lower: 4.00 to 5.00 for the first, 5.00 to 6.00 for the second. The second is the more potent here.

`O=C(Nc1cc(Br)c(Cl)c2c1C(c1cc(F)ccc1Cl)NC2=O)c1cc(F)cc(C(F)(F)F)c1` (centres unmarked) [Compound I-847] and `CC1(F)CN(c2cc(NC(=O)c3cc(F)cc(C(F)(F)F)c3)c3c(n2)C(=O)NC3c2cc(F)ccc2Cl)C1` (centres unmarked) [Compound I-368] cannot be ordered by pIC50: ≥ 7.00 for the first, 6.30 to 7.00 for the second.

`CC(C)(O)CNc1cc(NC(=O)c2cc(F)cc(C(F)(F)F)c2)c2c(c1)C(=O)NC2c1cc(F)ccc1Cl` (centres unmarked) [Compound I-730] and `N#Cc1cn(-c2cc(NC(=O)c3cc(F)cc(C(F)(F)F)c3)c3c(c2)C(=O)NC3c2cc(F)ccc2Cl)cn1` (centres unmarked) [Compound I-1127] cannot be ordered by pIC50: ≥ 7.00 for the first, ≥ 7.00 for the second.

Compared with `NCc1cc(-c2ccc3ncnn3c2)cc2c1C(c1cc(F)ccc1Cl)NC2=O` (centres unmarked) [Compound I-1950], `O=C1NC(c2cc(F)ccc2Cl)c2c(Nc3cn4ccccc4n3)cc(-c3ccc4ncnn4c3)cc21` (centres unmarked) [Compound I-1668] is higher in pIC50: 4.00 to 5.00 for the first, 5.00 to 6.00 for the second. The second is the more potent here.

First: O=C1N[C@H](c2cc(F)ccc2Cl)c2c(NC(=O)N3C[C@@](O)(CO)c4ccccc43)cccc21 [Compound I-2167]
Second: O=C1N[C@@H](c2cc(F)ccc2Cl)c2c(NC(=O)N3C[C@](O)(CO)c4ccccc43)cccc21 [Compound I-2166]
The pIC50 of the first is lower: 4.00 to 5.00 for the first, 5.00 to 6.00 for the second.

Compared with `O=C1NC(c2cc(F)ccc2Cl)c2c(NC(=O)N3CCOC(C(F)(F)F)C3)cc(Br)cc21` (centres unmarked) [Compound I-1810], `O=C1N[C@@H](c2cc(F)ccc2Cl)c2c(NC(=O)N3C[C@@](O)(C(F)(F)F)c4cc(F)ccc43)cc(C3COC3)cc21` (single isomer, unassigned) [Compound I-2656] is higher in pIC50: 5.00 to 6.00 for the first, 6.00 to 6.30 for the second. The second is the more potent here.

`O=C1NC(c2cc(F)ccc2Cl)c2c(NC(=O)C3COC4CCCCC43)cccc21` (centres unmarked) [Compound I-2302] and `O=C1NC(c2cc(F)ccc2Cl)c2c(NC(=O)C3CCc4ccccc4C3)cccc21` (mixture of isomers) [Compound I-2283] fall in the same range of pIC50: 4.00 to 5.00 for the first, 4.00 to 5.00 for the second.

`O=C(Nc1cc(-c2ccnn2C[C@H]2CCOC2)cc2c1C(c1cc(F)ccc1Cl)NC2=O)c1cc(F)cc(C(F)(F)F)c1` (single isomer, unassigned) [Compound I-1406] and `O=C(Nc1cc(/N=C2\OC[C@@H]3CCCN23)cc2c1C(c1cc(F)ccc1Cl)NC2=O)c1cc(F)cc(C(F)(F)F)c1` (some centres unmarked) [Compound I-2355] cannot be ordered by pIC50: ≥ 7.00 for the first, 6.30 to 7.00 for the second.

Compared with `O=C(Nc1cc(-c2ccc(C(F)F)nc2)cc2c1[C@@H](c1cc(F)ccc1Cl)NC2=O)c1cc(F)cc(C(F)(F)F)c1` [Compound I-2004], `N#Cc1c(-c2cc(NC(=O)c3cc(F)cc(C(F)(F)F)c3)c3c(c2)C(=O)NC3c2cc(F)ccc2Cl)cnn1C(F)F` (centres unmarked) [Compound I-1862] is higher in pIC50: 5.00 to 6.00 for the first, ≥ 7.00 for the second.

First: CNc1cc(NC(=O)N2C[C@](O)(C(F)(F)F)c3cc(F)ccc32)c2c(c1)C(=O)N[C@@H]2c1cc(F)ccc1Cl (single isomer, unassigned) [Compound I-2641]
Second: Cc1cn(-c2cc(NC(=O)N3C[C@](O)(C(F)(F)F)c4cc(F)ccc43)c3c(c2)C(=O)N[C@H]3c2cc(F)ccc2Cl)cn1 (single isomer, unassigned) [Compound I-2639]
The pIC50 of the first is higher: 6.00 to 6.30 for the first, 4.00 to 5.00 for the second. The first is the more potent here.

Compared with `CCN(C(=O)Nc1cccc2c1C(c1cc(F)ccc1Cl)NC2=O)c1ccc(F)cc1` (centres unmarked) [Compound I-2434], `Cc1ncc(-c2cc(NC(=O)c3cc(F)cc(Cl)c3)c3c(c2)C(=O)N[C@H]3c2cc(F)ccc2Cl)cn1` [Compound I-896] is higher in pIC50: 4.00 to 5.00 for the first, ≥ 7.00 for the second.

`O=C(Nc1cc(NC2CCC2(F)F)nc2c1C(c1cc(F)ccc1Cl)NC2=O)c1cc(F)cc(C(F)(F)F)c1` (centres unmarked) [Compound I-532] and `O=C(Nc1cc(Cc2ccc3c(c2)CCNC3=O)cc2c1[C@H](c1cc(F)ccc1Cl)NC2=O)c1cc(F)cc(C(F)(F)F)c1` [Compound I-1626] cannot be ordered by pIC50: ≥ 7.00 for the first, ≥ 7.00 for the second.

Compound `Cn1cc(-c2cc(NC(=O)c3nsc4ccccc34)c3c(n2)C(=O)N[C@@H]3c2ccccc2Cl)cn1` [Compound I-113] has a pIC50 of 6.30 to 7.00.
